Like-named read-outs stand apart in the source and are kept apart here.
Tests used:
MEK4 [1] = molecular target: T1, MEK4 (Homo sapiens, UniProt P45985); assay: Upstate Biotechnology MEK4 assay system, inhibition of MEK4 kinase activity; format: biochemical; conditions: in vitro
T1 construct: purchased Upstate Biotechnology
T1 sequence (P45985 1-399): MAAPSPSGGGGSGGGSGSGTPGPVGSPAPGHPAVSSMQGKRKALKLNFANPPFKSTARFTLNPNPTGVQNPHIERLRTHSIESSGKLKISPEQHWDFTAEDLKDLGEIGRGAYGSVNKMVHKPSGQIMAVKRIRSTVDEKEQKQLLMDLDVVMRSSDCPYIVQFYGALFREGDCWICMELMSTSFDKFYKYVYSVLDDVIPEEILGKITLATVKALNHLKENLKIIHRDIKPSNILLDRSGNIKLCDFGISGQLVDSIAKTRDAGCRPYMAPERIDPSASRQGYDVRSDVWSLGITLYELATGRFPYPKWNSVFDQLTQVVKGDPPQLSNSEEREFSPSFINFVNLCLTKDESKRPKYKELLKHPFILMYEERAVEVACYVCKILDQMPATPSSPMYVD

MEK4 [2] = assay: Phosphorylation of MEK4 in vivo (TGFβ stimulated); format: cell-based
Description: Phosphorylation by MEK4 (FIG. 4A) and phosphorylation of MEK4 (FIG. 7) was assayed. The Upstate Biotechnology MEK4 assay system was used to measure inhibition of MEK4 activity. Phosphorylation of MEK4 in vivo was assayed using standard techniques.

[3] = tested on: PCa cell lines (PC3, PC3-M, 1532CPTX, 1542CPTX, 1532NPTX, 1542NPTX); assay: Cell invasion assay of PCa cell lines (Examples 2 and 3); format: cell-based, human
Excerpt: MEK expression was examined in six human prostate cancer (PCa) cell lines: PC3 and PC3-M metastatic PCa cells, 1532CPTX and 1542 CPTX immortalized localized PCa cells, and 1532 NPTX and 1542 NPTX immortalized normal epithelial cells. The last four cell lines are primary cells, are HPV transformed, and thus represent early stages of prostate carcinogenesis. They provide representative members of the metastatic phenotype, as well as members of early state phenotypes. […] All six cell lines also secrete as well as respond to TGFβ, a regulator of cell motility that plays a role in PCa cell invasiveness.
Assays were conducted using methods as described in Craft et al. (2008, Mol. Pharmocol., 73(1):235-242; herein incorporated by reference in its entirety).

MMP-2 = assay: Phase 2 trial, MMP-2 transcript by qRT/PCR in LCM normal prostate epithelial cells; format: in vivo, human; conditions: 2 mg genistein/kg/day
Description: Of 38 subjects completing the study, MMP-2 expression was analyzed in tissue from 12 genistein-treated subjects and 12 controls. […] MMP-2 expression was measured by removing normal prostate epithelial cells from intact fresh frozen prostate tissue by laser capture microdissection (LCM), isolating RNA, treating with DNase, assessing RNA quality by capillary electrophoresis, and measuring MMP-2 transcript levels by qRT/PCR (normalizing to GAPDH), using exon spanning primers.

[4] = tested on: prostate epithelial cells; assay: Phase 2 trial, nuclear morphology of prostate epithelial cells; format: in vivo, human; conditions: genistein treated men vs controls
Excerpt: Though morphologically “normal,” these cells are present within organs with PCa, have pre-cancer molecular changes, and represent an appropriate target cell type for therapy that inhibits a process associated with PCa progression, in this case, development of the metastatic phenotype. […] These findings are consistent with its effects in vitro and in mice.

[5] = Phase 2 trial, serious adverse events; format: in vivo, human; conditions: grade >/= 2 clinical toxicity, NCI Common Toxicity Criteria v 2.0; 12 subjects
[6] = tested on: ER promoter-luciferase reporter vector construct; assay: ER promoter-luciferase reporter assay in MCF-7 cells; format: cell-based, human; conditions: 10 μM
Description: The genes were: TFF1 (trefoil factor 1; also known as pS2), PGR (progesterone receptor), and CPSD (cathepsin D). Gene expression was measured by isolating RNA, and performing real time quantitative reverse transcription/polymerase chain reaction (qRT/PCR), using exon spanning primers (purchased from Applied Biosystems). The expression of GAPDH was also measured, and used to normalize the expression of ER responsive genes. Data below are the mean±SD of a single experiment, performed in duplicate. […] Additionally, the ability of compound 46 to activate an ER promoter-luciferase reporter vector construct after transient transfection of the human ER positive breast cancer cell line, MCF-7, was evaluated (FIG. 31). […] “No associated control cells” were transfected with an identical vector construct that lacked the estrogen response element, i.e., noERE.

[7] = cited from earlier work
human PC3-M PCa cells = assay: Orthotopic PC3-M implantation metastasis model in athymic mice
[8] = 0, 100, 250 mg genistein/kg chow
[9] = Western blot, primary tumor tissue

## O=c1c(-c2ccc(O)cc2)coc2cc(O)cc(O)c12 [genistein]
MEK4 [1]
  phosphorylation of JNK3 by MEK4: inhibits phosphorylation of JNK3 by MEK4
MEK4 [2]
  TGFβ increased MEK4 phosphorylation: does not block such phosphorylation
[3]; early and late stage PCa cells
  cell invasion: inhibits invasion of both early and late stage PCa cells
[3]; in the presence of siMEK4
  effect of genistein on invasiveness when MEK4 expression suppressed: abrogated
MMP-2
  MMP-2 transcript level, % of controls (mean±SEM): 24±4.1%
[4]
  increase in nuclear length: 1.5±0.7%
  increase in nuclear width: 2.7±0.7%
[4]; only a trend
  increase in nuclear area: 2.0±1.0%
[5]
  serious adverse events, number: 0
[6]
  luciferase activity: induced luciferase activity
100 mg genistein/kg chow cohort
  blood concentration of total genistein: 290 ± 72 nM
250 mg genistein/kg chow cohort
  blood concentration of total genistein: 1307 ± 507 nM
[7]; 2 to 8 mg genistein/kg, men with prostate cancer
  tolerability: well tolerated
[7]; 2 to 8 mg genistein/kg
  peak concentration of free genistein: 66 to 170 nM
  peak concentration of total genistein: 4.3 to 16.3 µM
[7]; dependence on body mass
  clearance: not altered by body mass
[7]; in vivo
  blood genistein conjugated: > 90%
  halflife: 15 to 22 h
Human PC3-M PCa cells; [8]
  metastasis: decreased metastasis
  tumor volume: not tumor volume
Human PC3-M PCa cells; [9]
  level of total p38 MAP kinase protein: increased the level of total p38 MAP kinase protein
  p38 MAP kinase phosphorylation: decreased its phosphorylation
Human PC3-M PCa cells; between cohorts
  weight of mice: no difference
